Experimental data as given in US20220340547A1, “INDOLE DERIVATIVE-CONTAINING INHIBITOR, PREPARATION METHOD THEREFOR AND APPLICATION THEREOF” (Shanghi Hansoh Biosoh Biomedical Co., Ltd., priority 2019, published 2022).

Columns and labels:
[1] = target: EGFR D770_N771insNPG (Homo sapiens, UniProt P00533, INS770NPG); assay: TR-FRET inhibition of kinase activity of EGFR exon 20 insertion mutation; type: biochemical
Text: Determination of the Inhibitory Effect of the Compound of the Present Invention on the Kinase Activity of EGFR Exon 20 Insertion Mutation
Experimental objective: The objective of this test example is to determine the inhibitory effect of the compound on the kinase activity of EGFR exon 20 insertion mutation.
Experimental process: The experiment applied the TR-FRET (time-resolved fluorescence resonance energy transfer) method to study the inhibitory effect of the compound on the kinase activity of EGFR exon 20 insertion mutation. The experiment was carried out in a 384-well plate. Experimental buffer (50 mM HEPES, 1 mM EGTA, 10 mM MgCl2, 2 mM DTT, 0.01% Tween-20) was formulated. The compound was diluted in gradient to different concentrations with the experimental buffer. 2.5 μL of the solution was added to each well of the 384-well plate. 2.5 μL of diluted EGFR kinase solution (0.001-0.5 nM) was added, and the plate was incubated at room temperature for 10 minutes. 5 μL of ULight-poly GT/ATP mixed solution was added, and the plate was incubated at room temperature for 30 to 60 minutes. 5 μL of EDTA stop solution and 5 μL of Eu-labeled antibody detection solution were added, and the plate was incubated at room temperature for 1 hour.
(§1) Experimental Data Processing Method:
The concentration and inhibition rate were fitted to a nonlinear regression curve by Graphpad Prism software to obtain the IC50 value.

[2] = target: Ba/F3 EGFR-D770-N771ins_SVD (Homo sapiens, UniProt P00533, DUP768-770, cells depend on it); assay: Proliferation of Ba/F3 EGFR mutant cell line (CellTiter-Glo); type: cell-based, mouse; conditions: 72 h to 144 h, read-out: Ba/F3 EGFR-D770-N771ins_SVD IC50
Ba/F3 EGFR-D770-N771ins_SVD, sequence (P00533 with tags, fused parts or gaps DUP768-770): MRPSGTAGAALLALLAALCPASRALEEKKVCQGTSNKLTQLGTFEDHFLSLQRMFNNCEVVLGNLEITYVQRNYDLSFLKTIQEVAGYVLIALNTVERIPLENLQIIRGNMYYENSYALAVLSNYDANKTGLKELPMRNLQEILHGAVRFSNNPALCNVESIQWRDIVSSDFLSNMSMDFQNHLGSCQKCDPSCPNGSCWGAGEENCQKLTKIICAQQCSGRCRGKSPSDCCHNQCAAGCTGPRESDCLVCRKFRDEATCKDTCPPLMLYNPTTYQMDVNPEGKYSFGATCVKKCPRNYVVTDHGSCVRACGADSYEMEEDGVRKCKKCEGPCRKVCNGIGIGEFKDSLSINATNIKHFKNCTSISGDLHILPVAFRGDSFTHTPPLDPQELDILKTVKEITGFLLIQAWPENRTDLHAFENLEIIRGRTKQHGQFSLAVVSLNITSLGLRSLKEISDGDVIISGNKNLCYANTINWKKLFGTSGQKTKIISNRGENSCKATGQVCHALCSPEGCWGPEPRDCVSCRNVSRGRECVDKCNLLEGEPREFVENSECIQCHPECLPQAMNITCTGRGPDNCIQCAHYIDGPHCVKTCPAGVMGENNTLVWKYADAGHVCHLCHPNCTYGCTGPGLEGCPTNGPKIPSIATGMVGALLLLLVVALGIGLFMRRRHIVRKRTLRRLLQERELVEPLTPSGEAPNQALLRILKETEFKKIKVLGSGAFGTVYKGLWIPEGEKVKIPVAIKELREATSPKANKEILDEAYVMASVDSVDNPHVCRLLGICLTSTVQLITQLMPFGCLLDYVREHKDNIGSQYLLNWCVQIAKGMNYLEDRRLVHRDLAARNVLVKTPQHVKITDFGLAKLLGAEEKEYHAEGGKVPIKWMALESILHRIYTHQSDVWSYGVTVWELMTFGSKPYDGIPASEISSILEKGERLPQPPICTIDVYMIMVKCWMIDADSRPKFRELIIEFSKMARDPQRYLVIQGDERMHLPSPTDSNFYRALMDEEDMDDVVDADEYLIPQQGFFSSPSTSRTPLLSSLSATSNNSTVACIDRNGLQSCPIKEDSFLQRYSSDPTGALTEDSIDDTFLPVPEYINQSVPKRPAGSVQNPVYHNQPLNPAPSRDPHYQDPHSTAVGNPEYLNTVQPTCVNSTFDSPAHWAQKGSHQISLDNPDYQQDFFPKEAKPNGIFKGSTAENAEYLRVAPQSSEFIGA
Experimental: Determination of the Inhibitory Effect of the Compound of the Present Invention on the Proliferation of Ba/F3 EGFR Mutant Cell Line and A431 Cell Line
(§2) Experimental objective: The objective of this test example is to determine the inhibitory effect of the compound on the proliferation of Ba/F3 EGFR mutant cell line and A431 cell line
(§3) Experimental instruments: Microplate reader (BioTek Synergy H1), pipette (Eppendorf & Rainin).
Ba/F3 EGFR mutant cells were cultured, and harvested after reaching a suitable density. The cells were adjusted to an appropriate cell concentration with the complete medium. The cell suspension were spread on a 96-well plate (90 μL per well), and the plate was placed in a 37° C., 5% CO2 incubator overnight to let the cells adhere to the wall. Solutions of the compound at different concentrations were formulated with DMSO and culture medium. Solvent control was set. […] CellTiter-Glo solution was added and mixed well by shaking, and the plate was incubated in the dark for 10 minutes. The values were measured by BioTek Synergy H1 microplate reader.
as §1
(§4) The inhibition rate was calculated using the […] signal value. The concentration and inhibition rate were fitted to a nonlinear regression curve by Graphpad Prism software to obtain the IC50 value.

[3] = test system: A431 cell line; assay: Proliferation of A431 cell line (CellTiter-Glo); type: cell-based; conditions: Homo sapiens, A-431, 72 h
Experimental: Test Example 3. Determination of the Inhibitory Effect of the Compound of the Present Invention on the Proliferation of Ba/F3 EGFR Mutant Cell Line and A431 Cell Line
as §2, §3
A431 cells were cultured, and harvested after reaching a suitable density. The cells were adjusted to an appropriate cell concentration with the complete medium. The cell suspension were spread on a 96-well plate (90 μL per well), and the plate was placed in a 37° C., 5% CO2 incubator overnight to let the cells adhere to the wall. Solutions of the compound at different concentrations were formulated with DMSO and culture medium. Solvent control was set. The solution of the compound was added to the 96-well plate ([…]), and the plate was incubated in the 37° C., 5% CO2 incubator for 72 h. CellTiter-Glo solution was added and mixed well by shaking, and the plate was incubated in the dark for 10 minutes. The values were measured by BioTek Synergy H1 microplate reader.
as §1, §4

EGFR D770_N771insNPG, sequence (P00533 with tags, fused parts or gaps INS770NPG limits assumed): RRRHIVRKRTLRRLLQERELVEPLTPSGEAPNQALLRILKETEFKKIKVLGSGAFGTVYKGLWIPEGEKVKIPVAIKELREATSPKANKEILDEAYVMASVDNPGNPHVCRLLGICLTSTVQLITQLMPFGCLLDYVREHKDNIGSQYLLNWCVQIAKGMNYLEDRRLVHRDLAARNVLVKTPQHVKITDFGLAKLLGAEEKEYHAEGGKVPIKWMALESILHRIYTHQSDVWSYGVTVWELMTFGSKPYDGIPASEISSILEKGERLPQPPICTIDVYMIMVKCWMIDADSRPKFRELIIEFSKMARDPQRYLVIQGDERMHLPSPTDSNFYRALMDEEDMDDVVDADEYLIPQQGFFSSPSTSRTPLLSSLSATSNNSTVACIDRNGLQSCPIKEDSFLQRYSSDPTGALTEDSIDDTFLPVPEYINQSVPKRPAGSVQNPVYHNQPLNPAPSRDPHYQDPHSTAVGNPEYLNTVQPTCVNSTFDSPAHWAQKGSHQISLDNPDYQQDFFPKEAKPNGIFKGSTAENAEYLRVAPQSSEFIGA

SMILES	IC50 [1] [nM]	GI50 [2] [nM]	IC50 [3] [nM]
C=CC(=O)Nc1cc(Nc2ncc(-c3nccs3)c(-c3cn(C4CC4)c4ccccc34)n2)c(OC)cc1N1C[C@H]2CN(C)C[C@H]2C1 [Example 45, N-(5-((4-(1-Cyclopropyl-1H-indol-3-yl)-5-(thiazol-2-yl)pyrimidin-2-yl)amino)-4-methoxy-2-((3aR,6aS)-5-methylhexahydropyrrolo[3,4-c]pyrrol-2(1H)-yl)phenyl)acrylamide]	1	53.4	210
C=CC(=O)Nc1cc(Nc2ncc(-c3ncco3)c(-c3cn(C4CC4)c4ccccc34)n2)c(OC)cc1N1CC(N(C)C)C1 [Example 52, N-(5-((4-(1-Cyclopropyl-1H-indol-3-yl)-5-(oxazol-2-yl)pyrimidin-2-yl)amino)-2-(3-(dimethylamino)azetidin-1-yl)-4-methoxyphenyl)acrylamide]	0.79	34.9	306
C=CC(=O)Nc1cc(Nc2ncc(C#N)c(-c3cn(C4CC4)c4ccccc34)n2)c(OC)cc1N1C[C@H]2CN(C)C[C@H]2C1 [Example 35, N-(5-((5-Cyano-4-(1-cyclopropyl-1H-indol-3-yl)pyrimidin-2-yl)amino)-4-methoxy-2-((3aR,6aS)-5-methylhexahydropyrrolo[3,4-c]pyrrol-2(1H)-yl)phenyl)acrylamide]	0.43	24.8	162
C=CC(=O)Nc1cc(Nc2ncc(-c3ncco3)c(-c3cn(C4CC4)c4ccccc34)n2)c(OC)cc1N1CC[C@@H](N(C)C)C1 [Example 57, (R)—N-(5-((4-(1-Cyclopropyl-1H-indol-3-yl)-5-(oxazol-2-yl)pyrimidin-2-yl)amino)-2-(3-(dimethylamino)pyrrolidin-1-yl)-4-methoxyphenyl)acrylamide]	0.82	28.1	113
C=CC(=O)Nc1cc(Nc2ncc(-c3ncco3)c(-c3cn(C4CC4)c4ccccc34)n2)c(OC)cc1N1C[C@H]2CN(C)C[C@H]2C1 [Example 36, N-(5-((4-(1-Cyclopropyl-1H-indol-3-yl)-5-(oxazol-2-yl)pyrimidin-2-yl)amino)-4-methoxy-2-((3aR,6aS)-5-methylhexahydropyrrolo[3,4-c]pyrrol-2(1H)-yl)phenyl)acrylamide]	–	27.1	439
C=CC(=O)Nc1cc(Nc2ncc(-c3ccn(C)n3)c(-c3cn(C4CC4)c4ccccc34)n2)c(OC)cc1N1C[C@H]2CN(C)C[C@H]2C1 [Example 71, N-(5-((4-(1-Cyclopropyl-1H-indol-3-yl)-5-(1-methyl-1H-pyrazol-3-yl)pyrimidin-2-yl)amino)-4-methoxy-2-((3aR,6aS)-5-methylhexahydropyrrolo[3,4-c]pyrrol-2(1H)-yl)phenyl)acrylamide]	–	54.9	238
C=CC(=O)Nc1cc(Nc2ncc(-c3ncco3)c(-c3cn(C4CC4)c4ccccc34)n2)c(OC)cc1N1CC[C@H](N(C)C)C1 [Example 56, (S)—N-(5-((4-(1-Cyclopropyl-1H-indol-3-yl)-5-(oxazol-2-yl)pyrimidin-2-yl)amino)-2-(3-(dimethylamino)pyrrolidin-1-yl)-4-methoxyphenyl)acrylamide]	–	45.3	144
C=CC(=O)Nc1cc(Nc2ncc(-c3ncco3)c(-c3cn(C4CC4)c4ccccc34)n2)c(OC)cc1N1CC(N2CCCC2)C1 [Example 53, N-(5-((4-(1-Cyclopropyl-1H-indol-3-yl)-5-(oxazol-2-yl)pyrimidin-2-yl)amino)-4-methoxy-2-(3-(pyrrolidin-1-yl)azetidin-1-yl)phenyl)acrylamide]	0.5	21.7	182
C=CC(=O)Nc1cc(Nc2ncc(-c3cccnc3)c(-c3cn(C4CC4)c4ccccc34)n2)c(OC)cc1N1C[C@H]2CN(C)C[C@H]2C1 [Example 64, N-(5-((4-(1-Cyclopropyl-1H-indol-3-yl)-5-(pyridin-3-yl)pyrimidin-2-yl)amino)-4-methoxy-2-((3aR,6aS)-5-methylhexahydropyrrolo[3,4-c]pyrrol-2(1H)-yl)phenyl)acrylamide]	0.39	17.4	28.9
C=CC(=O)Nc1cc(Nc2ncc(C#N)c(-c3cn(C4CC4)c4ccc(OC)cc34)n2)c(OC)cc1N(C)CCN(C)C [Example 118, N-(5-((5-Cyano-4-(1-cyclopropyl-5-methoxy-1H-indol-3-yl)pyrimidin-2-yl)amino)-2-((2-(dimethylamino)ethyl)(methyl)amino)-4-methoxyphenyl)acrylamide]	0.55	45.1	201
C=CC(=O)Nc1cc(Nc2ncc(C#N)c(-c3cn(C4CC4)c4cc(OC)c(F)cc34)n2)c(OC)cc1N(C)CCN(C)C [Example 127, N-(5-((5-Cyano-4-(1-cyclopropyl-5-fluoro-6-methoxy-1H-indol-3-yl)pyrimidin-2-yl)amino)-2-((2-(dimethylamino)ethyl)(methyl)amino)-4-methoxyphenyl)acrylamide]	0.18	13.4	46.6
C=CC(=O)Nc1cc(Nc2ncc(C#N)c(-c3cn(C4COC4)c4cc(OC)ccc34)n2)c(OC)cc1N(C)CCN(C)C [Example 137, N-(5-((5-Cyano-4-(6-methoxy-1-(oxetan-3-yl)-1H-indol-3-yl)pyrimidin-2-yl)amino)-2-((2-(dimethylamino)ethyl)(methyl)amino)-4-methoxyphenyl)acrylamide]	0.16	9.78	18.2
C=CC(=O)Nc1cc(Nc2ncc(-c3ncco3)c(-c3cn(C4CC4)c4ccccc34)n2)c(OC)cc1N1C[C@@H]2CCN(C)[C@@H]2C1 (relative stereo) [Example 40, Cis N-(5-((4-(1-Cyclopropyl-1H-indol-3-yl)-5-(oxazol-2-yl)pyrimidin-2-yl)amino)-4-methoxy-2-(1-methylhexahydropyrrolo[3,4-b]pyrrol-5(1H)-yl)phenyl)acrylamide]	0.55	34.6	133
C=CC(=O)Nc1cc(Nc2ncc(C#N)c(-c3cn(C4CC4)c4ccccc34)n2)c(OC)cc1N1C[C@H]2CCN(C)[C@H]2C1 [Example 109, N-(5-((5-Cyano-4-(1-cyclopropyl-1H-indol-3-yl)pyrimidin-2-yl)amino)-4-methoxy-2-((3aR,6aR)-1-methylhexahydropyrrolo[3,4-b]pyrrol-5(1H)-yl)phenyl)acrylamide]	0.78	49.1	168
C=CC(=O)Nc1cc(Nc2ncc(-c3ccccc3)c(-c3cn(C4CC4)c4ccccc34)n2)c(OC)cc1N1C[C@H]2CN(C)C[C@H]2C1 [Example 47, N-(5-((4-(1-Cyclopropyl-1H-indol-3-yl)-5-phenylpyrimidin-2-yl)amino)-4-methoxy-2-((3aR,6aS)-5-methylhexahydropyrrolo[3,4-c]pyrrol-2(1H)-yl)phenyl)acrylamide]	–	33.1	51.7
C=CC(=O)Nc1cc(Nc2ncc(C#N)c(-c3cn(C4COC4)c4ccccc34)n2)c(OC)cc1N(C)CCN(C)C [Example 111, N-(5-((5-cyano-4-(1-(oxetan-3-yl)-1H-indol-3-yl)pyrimidin-2-yl)amino)-2-((2-(dimethylamino)ethyl)(methyl)amino)-4-methoxyphenyl)acrylamide]	0.18	21.2	34.1
C=CC(=O)Nc1cc(Nc2ncc(C#N)c(-c3cn(C4CC4)c4ccccc34)n2)c(OC)cc1N1CC[C@@H](N(C)C)C1 [Example 78, (R)—N-(5-((5-Cyano-4-(1-cyclopropyl-1H-indol-3-yl)pyrimidin-2-yl)amino)-2-(3-(dimethylamino)pyrrolidin-1-yl)-4-methoxyphenyl)acrylamide]	0.5	48.2	258
